# Measured values taken from patent US20100331363A1, “TREATMENT OF MITOCHONDRIAL DISORDERS USING A FARNESYL TRANSFERASE INHIBITOR” (Link Medicine Corporation, priority 2008, published 2010).
# Entries after “also recorded” stand apart in the source; their conditions may differ. Like-named read-outs stand apart in the source and are kept apart here.
# Legend:
# APP/PS1 transgenic mice = assay: Morris water maze in APP/PS1 transgenic mice; type: in vivo, mouse; conditions: 0.9 mg/kg once every 24 hours, vs vehicle
# Experimental: Animals and treatments: Male and female human WT alpha-synuclein over-expressing transgenic mice^32 at 6 months of age were given vehicle (10% beta-cyclodextrin) or LNK-754-TS (0.09, 0.9 and 9 mg/kg) per oral gavage twice daily for 3 months or animals at 7 months of age were given vehicle (2.5% beta-cyclodextrin) or LNK-754-TS (2 mg/kg) once every three days for 3 months. Male and female TAU transgenic mice expressing TAU441 bearing the missense mutations V337M^50 and R406W under the control of the murine Thy-1 promoter with a CB6xC57BL/6 background were 5 months old at the time when the oral treatment for three months with LNK-754-TS (0.9 and 0.09 mg/kg) as well as vehicle (2.5% beta-cyclodextrin) was started. Female human APP/PS1 (APP (London V7171)/PS1(A246E)) over-expressing transgenic mice were treated with LNK-754-TS (0.9 mg/kg) or vehicle (2.5% beta-cyclodextrin) for 2 months or 12 days.
# Morris water maze (MWM) analysis of cognitive performance: In APP/PS1 transgenic animals, swimming behavior in a Morris Water Maze was videotaped and analyzed (Ethovision, Noldus, Wageningen, Netherlands). For mice, a place navigation test was used to locate the hidden platform in five blocks of three trials over three consecutive days. […] The time each mouse needed for location of the platform was measured. […] The time and path length each rat needed to locate the platform was measured. […]
# Ras = assay: Inhibition of Ras farnesylation in SH-SY5Y cells; type: cell-based, human; conditions: continuous exposure over long periods, average
# aged non-transgenic rats = assay: Morris water maze in aged non-transgenic rats; type: in vivo, rat; conditions: aged rats 22 months, 0.3 mg/kg and 0.9 mg/kg once every 24 hours
# Text: Morris water maze (MWM) analysis of cognitive performance: In APP/PS1 transgenic animals, swimming behavior in a Morris Water Maze was videotaped and analyzed (Ethovision, Noldus, Wageningen, Netherlands). For mice, a place navigation test was used to locate the hidden platform in five blocks of three trials over three consecutive days. Each trial consists of a forced swim test of maximum 120 seconds, followed by 60 seconds of rest. The time each mouse needed for location of the platform was measured. For rats, a cued learning phase was first conducted, consisting of 3 trials per day for 5 days, using a visible platform of varying location. Each trial consisted of a forced swim test of maximum 60 seconds, followed by 10 minutes of rest. The time and path length each rat needed to locate the platform was measured.
# In order to rule out the possibility that the rapid observed improvement in cognition described above arose from an alternative, transgene-independent mechanism, aged non-transgenic rats (22 months old) were treated with LNK-754-TS (0.3 mg/kg and 0.9 mg/kg, once every 24 hours) and their cognitive performance was measured by MWM and compared to that of younger rats (3 months old) of the same strain.
# [1] = tested on: LC3-positive puncta (autophagosomes); assay: LC3 immunostaining (LC3-positive puncta) in SH-SY5Y cells; type: cell-based, human; conditions: 100 nM, SH-SY5Y (FIG. 8b)
# Experimental: Cell culture and immunocytochemistry: SH-SY5Y cells were grown in DMEM medium supplemented with 10% FBS and 1% pen/strep at 37° C. and 5% CO2. Cells were differentiated with 10 μM retinoic acid for 48 hr, then treated with the either rapamycin (100 nM or 1 μM) or with 100 nM of either LNK-754-TS or Tipifarnib for 48-72 hr. Cells were then fixed with 4% paraformaldehyde and stained for LC3 (Novus biological, NB100-2331, dilution 1:800) followed by secondary Alexa-564 anti-Rabbit (A-11011).
# Autophagy was measured in a neuroblastoma cell culture system by three distinct approaches: quantitation of autophagy-related mRNA's, immunofluorescence microscopy of autophagosomes, and biochemical detection of the microtubule-associated protein 1 light chain 3 (LC3) a key protein that is required for autophagosome formation. Differentiated human neuroblastoma cells (SH-SY5Y) were treated for 72 hr with LNK-754-TS (0.01-100 nM), Zarnestra® (also referred to herein as tipifarnib) (100 nM) or rapamycin (1 μM).
# GGTase = GGTase (Homo sapiens, UniProt P49354+P53609); assay: Table 5A in vitro GGTI (H-Ras, K-Ras CAAX mutant); type: biochemical
# Text: The selectivity of LNK-754 for FTase over GGTAse is shown below in Table 5A.
# isolated islet cells = assay: Insulin secretion assay, isolated islet cells; type: cell-based; conditions: for increase in insulin stimulation: 10 nM, high glucose conditions (15 mM)
# Experimental: One example of such an assay is as follows: prior to glucose-induced insulin secretion, cells were cultured for two hours in RPMI containing 3 mM glucose without serum. Cells were then washed and preincubated for 30 min in modified Krebs-Ringer bicarbonate buffer (KRB) containing (in mM): 119 NaCl, 4.6 KCl, 5 NaHCO3, 2 CaCl2, 1 MgSO4, 0.15 Na2HPO4, 0.4 KH2PO4, 20 HEPES, 2 glucose, 0.05% BSA, pH 7.4. This was followed by 30 min incubation in media containing either 3 mM glucose (to simulate low glucose conditions) or 15 mM glucose (to simulate high glucose conditions). Media are treated with varying concentrations of compound (1 nM and 10 nM). Media was collected and stored at −20° C. for insulin measurement. Insulin was measured by ELISA.
# In both graphs, insulin is measured in (pictogram/ml). […] The amount of insulin secretion stimulated is dependent on the concentration of compound, incubation time, and cell-type. […] This distinguishes the effect of LNK-754 from sulfonyl urea compounds, the current standard oral anti-diabetic drug which increases insulin secretion under all conditions (not desired).
# human α-synuclein = assay: Masliah D-line α-synuclein transgenic mouse, α-synuclein immunoreactivity and ELISA; type: in vivo; conditions: 0.09 mg/kg, second trial (FIG. 2B)
# [2] = tested on: 3T3H-ras (61 L) xenograft tumor; Ras farnesylation; conditions: continuous infusion, 7 day treatment, cited from earlier work
# INS-1 cells = assay: Whole cell mitochondrial fusion assay (paGFP) in INS-1 cells; type: cell-based; conditions: 1 nM, 48 hours
# Text: Mitochondrial dynamics is necessary for the maintenance of bioenergetic functions and maintenance of homogenous population of mitochondria. Mutations in Mfn2 and Opal have been implicated in neuropathies. A whole cell fusion assay was used to evaluate the effect of LNK-754 on the enhancement of mitochondrial fusion and fission events. Photo-activateable GFP is used to label and follow an individual mitochondrion. Photo-activatable GFP becomes fluorescent only after absorbing UV light. Mitochondria undergo frequent fusion and fission. During fusion, the labeled mitochondrion passes fluorescent GFP to a neighboring unlabeled mitochondrion (Molina and Shirihai, […], 2009). […] The following assay protocol was followed: paGFP expression was carried out using adenoviral transduction if INS-1 cells. The cells were treated for 48 hours with 1 nM LNK-754. Mitochondria were labeled with TMRE to facilitate tagging. UV pulse was delivered by two-photon laser. Z-stacks of individual cells were taken every 5 minutes for 30 minutes. Three separate runs were performed over 3 weeks at imaging facilities.
Structure (SMILES),"cognitive performance, Morris water maze (APP/PS1 transgenic mice; 12 days)",performance in the Morris water maze (APP/PS1 transgenic mice; two months),IC50 (Ras),"cognitive performance, Morris water maze (place learning, probe tests) (aged non-transgenic rats)",number of LC3-positive puncta [1],IC50 (GGTase; read-out: H-Ras CAAX Mutant GGTI),IC50 (GGTase; read-out: K-Ras CAAX Mutant GGTI),increase in insulin stimulation (isolated islet cells; 2.5 days of incubation),increase in insulin stimulation (isolated islet cells; 3 days of incubation),insulin secretion under basal glucose conditions (isolated islet cells; basal glucose (3 nM)),number of α-synuclein positive neurons (human α-synuclein),inhibition of Ras farnesylation at which significant inhibition of tumor growth was seen ([2]; tumor tissue),continuous serum level at which significant inhibition of tumor growth was seen [2],mitochondrial dynamics (fusion and fission) (INS-1 cells)
"C#Cc1cccc(-c2cc(=O)n(C)c3ccc([C@](O)(c4ccc(Cl)cc4)c4cncn4C)cc23)c1 [LNK-754-TS, (R)-6-[(4-chlorophenyl)-hydroxyl-(1-methyl-1-H-imidazol-5-yl)-methyl]-4-(3-ethynylphenyl)-1-methyl-2-(1H)-quinonlinone (2S, 3S)-dihydroxybutanedioate]",significant cognitive improvement,performed significantly better; also recorded: significant cognitive improvement,1 nM,no significant cognitive improvement,distinct increase; also recorded: increased,–,–,–,–,–,–,–,–,–
"C#Cc1cccc(-c2cc(=O)n(C)c3ccc([C@](O)(c4ccc(Cl)cc4)c4cncn4C)cc23)c1 [LNK-754, (R)-6-[(4-chlorophenyl)-hydroxyl-(1-methyl-1-H-imidazol-5-yl)-methyl]-4-(3-ethynylphenyl)-1-methyl-2-(1H)-quinonlinone]",–,–,–,–,–,552 nM,2890 nM,~75%,~55%,not under basal glucose conditions; also recorded: does not affect basal insulin secretion,significantly lowered,at least 50%,above 100 ng/mL,promotes mitochondrial dynamics
